Earlier results on one compound are cited in patent US7138430B2, “Nitrosated and nitrosylated nebivolol and its metabolites, compositions and methods of use” (NitroMed, Inc., priority 2001, dated 2006).

As to `O=[N+]([O-])O[C@H]1CO[C@H]2[C@@H]1OC[C@H]2O[N+](=O)[O-]` [isosorbide dinitrate, 1,4,3,6-dianhydro-D-glucitol-2,5-dinitrate], the “solubility in organic solvents” value (organic solvents such as ethanol, ether and chloroform) is on record as “freely soluble”. Also, the solubility in water entry (water) was “sparingly soluble”.
